The text below walks through data of PubChem BioAssay (NCI).

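Test compounds were applied to cells in 96-well plates for 48 hours at 5 doses. TGI denotes the concentration required for complete inhibition of growth.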

Holding throughout (assay): inhibition of tumour cell growth, NCI panel, 48 h
Test [1] concerns SF-539 CNS.
The test system of test [2] is RPMI-8226 leukemia.
Test [3] concerns OVCAR-8 ovarian.
For test [4], the system named is HS 578T breast.
Test [5] concerns MDA-MB-435.
The subject of test [6] is OVCAR-4 ovarian.
Test [7] has as its system OVCAR-5 ovarian.
Test [8] relates to MALME-3M melanoma.
Test [9] has as its system TK-10 renal.
Test [10] has as its system MOLT-4 leukemia.

Turning to `O=C(CCCc1cccc2[nH]c3c(c12)CN(Cc1ccccc1)CC3)c1ccc(F)cc1`, the TGI in test [1] was greater than 100 µM; in test [2], greater than 95.1 µM; in test [3], greater than 100 µM; in test [4], greater than 100 µM; in [5] it was greater than 100 µM; in test [6], greater than 100 µM. The TGI in [7], in [8], in test [9] and in test [10] was greater than 100 µM in each case.
Take `CCO/N=C\c1ccc2oc(-c3ccccc3)cc(=O)c2c1`: the TGI in test [1] was 2.86 µM; in [2] it was 9.42 µM; in test [3], 12.5 µM; in [4], 42.8 µM; in test [5], 2.49 µM; in test [6], greater than 85.9 µM. Moreover, the TGI was determined as 40 µM in test [7], 43.1 µM in test [8], 34 µM in [9] and 19.9 µM in test [10].
For the compound `C/C(Cc1ccc2c(c1)OCO2)=N\N=c1\sc2ccccc2n1C`, the TGI in test [1], in [2], in [3], in test [4], in test [5] and in test [6] was greater than 100 µM in each case. Moreover, the TGI in test [7], in test [8], in [9] and in test [10] was greater than 100 µM in each case.
Turning to `Cc1ccc(C(=O)Nc2ccc(S(=O)(=O)O)c3cc(S(=O)(=O)O)cc(S(=O)(=O)O)c23)cc1NC(=O)c1cccc(NC(=O)Nc2cccc(C(=O)Nc3cc(C(=O)Nc4ccc(S(=O)(=O)O)c5cc(S(=O)(=O)O)cc(S(=O)(=O)O)c45)ccc3C)c2)c1`, the TGI in test [1], in test [2], in [3], in test [4], in test [5] and in test [6] was greater than 100 µM each time. Also, the TGI in [7] is greater than 100 µM; in [8] it was greater than 100 µM; in test [9], greater than 89.7 µM; in test [10] it was greater than 100 µM.
As to `COc1cc2ncnc(NS(=O)(=O)c3cc4ccccc4s3)c2cc1OC`, the TGI in test [1], in [2], in test [3], in [4], in [5] and in [6] was greater than 100 µM in each case. For the same compound, the TGI in test [7], in [8], in test [9] and in test [10] was greater than 100 µM in each case.
Regarding `O=C(N/N=C\c1ccc(Cl)cc1)Nc1ccc2ccccc2c1`, the TGI in test [1] is 75.7 µM; in test [2] it was greater than 100 µM; in [3], 73.2 µM; in test [4], 76.9 µM; in [5], greater than 100 µM; in test [6] it was 39.2 µM. The TGI in test [7], in test [8], in [9] and in test [10] was greater than 100 µM each time.
Regarding `COc1ccc(SCc2cc(OC)ccc2OC)cc1`, the TGI in test [1] was greater than 100 µM; in test [2], greater than 100 µM; in [3], greater than 100 µM; in test [4], 97.7 µM; in test [5], 13 µM; in test [6], greater than 100 µM. Further, the TGI was greater than 100 µM in [7], greater than 100 µM in [8], greater than 100 µM in [9] and greater than 91.2 µM in [10].
On to `O=C(O)c1ccc2c(O)c(O)ccc2c1`, for which the TGI in test [1] is greater than 100 µM; in [2], 40.2 µM; in test [3], 47.9 µM; in [4], 70.9 µM; in [5], 34.7 µM; in test [6], 54.1 µM. Further, the TGI in [7] was 57.5 µM; in [8] it was greater than 74.6 µM; in [9], 18.6 µM; in [10] it was 18 µM.
With `O=C1CCCC2=C1CC1=C(CCCC1=O)N2c1ccc(Cl)cc1`, the TGI in [1], in test [2], in [3], in [4], in test [5] and in test [6] was greater than 100 µM each time. The TGI in test [7], in test [8], in test [9] and in [10] was greater than 100 µM in each case.
Regarding `Cc1cc2ncn(CC(=O)O)c2cc1C`, the TGI in [1], in test [2], in test [3], in test [4], in test [5] and in [6] was greater than 100 µM in each case. For the same compound, the TGI in [7], in test [8], in test [9] and in [10] was greater than 100 µM throughout.
